Laboratory results reported in US10309967B2, “Methods of diagnosing bipolar disorders and screening for therapeutic compounds” (National University Corporation Chiba University, priority 2015, dated 2019).
“Also recorded” adds a separate entry of the source.

Tested on: CSF samples from rats
Assay: Metabolomics (CE-TOFMS) of CSF samples from rats chronically treated with Li or VPA
Assay type: in vivo, rat
Conditions: chronic (4-weeks) treatment via drinking water
Experimental: Data from human samples are presented as mean±standard deviation (SD). Statistical analysis was performed using SAS software version 9.3 (SAS Institute, Cary, N.C.). Analyses of metabolites between control and BD groups were performed using unpaired t-tests and Wilcoxon rank sum tests. A logistic regression model with a stepwise selection method was used for the multivariate analysis and multiple regression analysis (consistent with description in Allen et al., Technometrics. 1974; 16(1):125-127; and Miller et al., Chapman and Hall. 1974, which are incorporated in their entireties by reference herein). […] The Mann-Whitney U test (two-tailed) was used to evaluate changes in expression levels of the ACO and IDH genes between control and BD groups. Rat data are presented as mean±SD. To determine the effects of drug treatment, a one-way ANOVA, followed by the post hoc Dunnett's test was used. P values of less than 0.05 for two-tailed tests were considered statistically significant.
The volume (50 μL) of CSF sample was added to 450 μL it methanol containing internal standards, and mixed. Then, 450 μL chloroform and 200 μL Milli-Q water was added to the mixture. After mixture, the mixture was centrifuged at 2,300×g and 4° C. for 5 min. Subsequently, 800 μL of upper aqueous layer was centrifugally filtered through a Millipore 5-kDa cutoff filter at 9,100×g and 4° C. for 120 min to remove proteins. The filtrate was centrifugally concentrated and re-suspended in 25 μL of Milli-Q water for analysis.
Cationic compounds were measured in the positive mode of CE-TOFMS (Agilent CE-TOFMS system Machine No. 3, Fused silica capillary, i.d. 50 μM×80 cm), and anionic compounds were measured in the positive and negative modes of CE-MS/MS (Agilent CE system and Agilent 6400 TripleQuad LC/MS Machine No. QqQ01, Fused silica capillary, i.d. 50 μM×80 cm), as reported previously (Soga et al., Anal. Chem. 2000; 72(6):1236-1241; Soga et al., Anal Chem. 2002; 74(10):2233-2239; Soga et al., J. Proteome Res. 2003; 2(5):488-494, which are incorporated in their entireties by reference herein). Peaks detected by CE-TOFMS and CE-MS/MS were extracted using automatic integration software (MasterHands, Keio University, Tsuruoka, Japan) (Sugimoto et al., Metabolomics. 2009; 6(1):78-95, which is incorporated in its entirety by reference herein) and MassHunter Quantitative Analysis B.04.00, Agilent Technologies, Santa Clara, Calif., USA) in order to obtain peak information including m/z, migration time (MT), and peak area. The peaks were annotated with putative metabolites from the HMT metabolite database based on their MTs in CE and m/z values determined by TOFMS. The tolerance range for the peak annotation was configured at ±0.5 min for MT and ±10 ppm for m/z. In addition, concentrations of metabolites were calculated by normalizing the peak area of each metabolite with respect to the area of the internal standard and by using standard curves, which were obtained by three-point calibrations.
The CSF concentrations of 116 major metabolites from several pathways were measured. […] Male Sprague-Dawley rats (Japan SLC Inc., Shizuoka, Japan) aged 6 weeks old were used in this study. All rats were housed in groups of three per cage in a room maintained at 23° C.±2° C. and 60±10% humidity with a 12/12 hour light/dark cycle (lights on at 7:00 a.m.). The rats were given free access to food and water. Animal care and use were conducted in accordance with the Institutional Guidelines for Animal Care and Use of Otsuka Pharmaceutical Co., Ltd. (Tokushima, Japan). […] The drinking water was replaced twice a week. […] All animals were decapitated on day 30 after CSF sampling, and brain regions (prefrontal cortex, and hippocampus) were dissected rapidly on ice. Metabolomic analyses of rat CSF samples were performed as described herein.

O=C([O-])[O-].[Li+].[Li+] [Li, lithium carbonate]
2-Oxoisovaleric acid Mean (rat CSF): 4.3 µM | 3-Phosphoglyceric acid Mean (rat CSF): 0.3 µM | ADP-ribose Mean (rat CSF): 0.010 µM | Adenosine Mean (rat CSF): 0.2 µM | Alanin (Ala) Mean (rat CSF): 54 µM | Arginine (Arg) Mean (rat CSF): 31 µM | Argininosuccinic acid Mean (rat CSF): 1.0 µM | Asparagic acid (Asp) Mean (rat CSF): 1.8 µM | Asparagine (Asn) Mean (rat CSF): 4.8 µM | Carnosine Mean (rat CSF): 0.5 µM | Choline Mean (rat CSF): 7.5 µM | Citric acid Mean (rat CSF): 57 µM | Citrulline Mean (rat CSF): 3.8 µM | Creatine Mean (rat CSF): 60 µM | Creatinine Mean (rat CSF): 6.0 µM | Dihydroxyacetone phosphate Mean (rat CSF): 0.6 µM | Fructose 6-phosphate Mean (rat CSF): 0.2 µM | Glucose 6-phosphate Mean (rat CSF): 0.5 µM | Glutamic acid (Glu) Mean (rat CSF): 2.0 µM | Glutamine (Gln) Mean (rat CSF): 534 µM | Glutathione (GSSG) Mean (rat CSF): 1.1 µM | Glyceraldehyde 3-phosphate Mean (rat CSF): 0.9 µM | Glycerol 3-phosphate Mean (rat CSF): 7.2 µM | Glycine (Gly) Mean (rat CSF): 5.5 µM | Histidine (His) Mean (rat CSF): 7.1 µM | Homoserine Mean (rat CSF): 0.10 µM | Hydroxyproline Mean (rat CSF): 1.1 µM | Hypoxanthine Mean (rat CSF): 1.2 µM | Inosine monophosphate (IMP) Mean (rat CSF): 0.10 µM | Isocitric acid Mean (rat CSF): 2.0 µM | Isoleucine (Ile) Mean (rat CSF): 1.5 µM | Lactic acid Mean (rat CSF): 2,438 μM | Leucine (Leu) Mean (rat CSF): 5.1 µM | Lysine (Lys) Mean (rat CSF): 71 µM | Malic acid Mean (rat CSF): 2.2 µM | Methionine (Met) Mean (rat CSF): 4.4 µM | Mevalonic acid Mean (rat CSF): 0.003 µM | N-Carbamoylaspartic acid Mean (rat CSF): 0.04 µM | Nicotinamide Adenine dinucleotide (NAD^+) Mean (rat CSF): 0.8 µM | Nicotinamide Adenine dinucleotide phophate (NADP^+) Mean (rat CSF): 0.09 µM | Ornithine Mean (rat CSF): 2.3 µM | Phenylalanine (Phe) Mean (rat CSF): 3.1 µM | Phosphocreatine Mean (rat CSF): 6.9 µM | Phosphoenolpyruvic acid Mean (rat CSF): 0.2 µM | Pyruvic acid Mean (rat CSF): 29 µM | Ribose 5-phosphate Mean (rat CSF): 0.07 µM | Ribulose 5-phosphate Mean (rat CSF): 0.10 µM | S-Adenosylmethionine Mean (rat CSF): 0.5 µM | Serine (Ser) Mean (rat CSF): 82 µM | Succinic acid Mean (rat CSF): 9.0 µM | Threonine (Thr) Mean (rat CSF): 54 µM | Tryptophan (Trp) Mean (rat CSF): 1.2 µM | Tyrosine (Tyr) Mean (rat CSF): 5.4 µM | UDP-glucose Mean (rat CSF): 0.3 µM | Urea Mean (rat CSF): 4,332 μM | Uric acid Mean (rat CSF): 1.8 µM | Valine (Val) Mean (rat CSF): 2.3 µM | Xanthine Mean (rat CSF): 1.6 µM | cyclic AMP (cAMP) Mean (rat CSF): 0.007 µM | cyclic GMP (cGMP) Mean (rat CSF): 0.003 µM | CSF levels of argininosuccinic acid (rats, vs control): significantly increased | CSF levels of isocitrate (rats, vs control): not altered; also recorded: did not alter | CSF levels of succinic acid (rats, vs control): significantly increased

CCCC(CCC)C(=O)[O-].[Na+] [VPA, valproic acid sodium salt]
2-Oxoisovaleric acid Mean (rat CSF): 4.3 µM | 3-Phosphoglyceric acid Mean (rat CSF): 0.3 µM | ADP-ribose Mean (rat CSF): 0.01 µM | Adenosine Mean (rat CSF): 0.2 µM | Alanin (Ala) Mean (rat CSF): 50 µM | Arginine (Arg) Mean (rat CSF): 27 µM | Argininosuccinic acid Mean (rat CSF): 0.7 µM | Asparagic acid (Asp) Mean (rat CSF): 1.6 µM | Asparagine (Asn) Mean (rat CSF): 4.0 µM | Carnosine Mean (rat CSF): 0.5 µM | Choline Mean (rat CSF): 7.8 µM | Citric acid Mean (rat CSF): 44 µM | Citrulline Mean (rat CSF): 3.6 µM | Creatine Mean (rat CSF): 56 µM | Creatinine Mean (rat CSF): 6.2 µM | Dihydroxyacetone phosphate Mean (rat CSF): 0.8 µM | Fructose 6-phosphate Mean (rat CSF): 0.2 µM | Glucose 6-phosphate Mean (rat CSF): 0.5 µM | Glutamic acid (Glu) Mean (rat CSF): 1.6 µM | Glutamine (Gln) Mean (rat CSF): 598 µM | Glutathione (GSSG) Mean (rat CSF): 0.9 µM | Glyceraldehyde 3-phosphate Mean (rat CSF): 1.1 µM | Glycerol 3-phosphate Mean (rat CSF): 7.0 µM | Glycine (Gly) Mean (rat CSF): 6.5 µM | Histidine (His) Mean (rat CSF): 7.1 µM | Homoserine Mean (rat CSF): 0.09 µM | Hydroxyproline Mean (rat CSF): 1.1 µM | Hypoxanthine Mean (rat CSF): 1.4 µM | Inosine monophosphate (IMP) Mean (rat CSF): 0.1 µM | Isocitric acid Mean (rat CSF): 1.6 µM | Isoleucine (Ile) Mean (rat CSF): 1.2 µM | Lactic acid Mean (rat CSF): 2,361 μM | Leucine (Leu) Mean (rat CSF): 4.5 µM | Lysine (Lys) Mean (rat CSF): 85 µM | Malic acid Mean (rat CSF): 0.7 µM | Methionine (Met) Mean (rat CSF): 3.3 µM | N-Carbamoylaspartic acid Mean (rat CSF): 0.02 µM | Nicotinamide Adenine dinucleotide (NAD^+) Mean (rat CSF): 0.8 µM | Nicotinamide Adenine dinucleotide phophate (NADP^+) Mean (rat CSF): 0.09 µM | Ornithine Mean (rat CSF): 2.2 µM | Phenylalanine (Phe) Mean (rat CSF): 2.9 µM | Phosphocreatine Mean (rat CSF): 6.8 µM | Phosphoenolpyruvic acid Mean (rat CSF): 0.15 µM | Pyruvic acid Mean (rat CSF): 21 µM | Ribose 5-phosphate Mean (rat CSF): 0.06 µM | Ribulose 5-phosphate Mean (rat CSF): 0.08 µM | S-Adenosylmethionine Mean (rat CSF): 0.5 µM | Serine (Ser) Mean (rat CSF): 83 µM | Succinic acid Mean (rat CSF): 7.4 µM | Threonine (Thr) Mean (rat CSF): 41 µM | Tryptophan (Trp) Mean (rat CSF): 1.0 µM | Tyrosine (Tyr) Mean (rat CSF): 5.2 µM | UDP-glucose Mean (rat CSF): 0.3 µM | Urea Mean (rat CSF): 3,714 μM | Uric acid Mean (rat CSF): 1.8 µM | Valine (Val) Mean (rat CSF): 2.1 µM | Xanthine Mean (rat CSF): 1.5 µM | cyclic AMP (cAMP) Mean (rat CSF): 0.006 µM | cyclic GMP (cGMP) Mean (rat CSF): 0.003 µM | CSF levels of arginine (rats, vs control): significantly altered | CSF levels of argininosuccinic acid (rats, vs control): significantly altered | CSF levels of glutamine (rats, vs control): significantly altered | CSF levels of threonine (rats, vs control): significantly altered | CSF levels of tryptophan (rats, vs control): significantly altered | CSF levels of isocitrate (rats, vs control, sodium salt): not altered; also recorded: did not alter
